Reference: PubChem BioAssay (NCI)
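All cell lines were grown in 96-well plates and treated with compound for 48 hours. TGI denotes the concentration required for complete inhibition of growth.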

How the values were obtained:
Experiment in all cases: NCI-60 cell line screen, 48 h
786-0 renal = test system: 786-0 renal
A498 renal = test system: A498 renal
A549 NSCLC = test system: A549 NSCLC
DU-145 prostate = test system: DU-145 prostate
HCC-2998 colon = test system: HCC-2998 colon
HCT-116 colon = test system: HCT-116 colon
HCT-15 colon = test system: HCT-15 colon
MCF7 breast = test system: MCF7 breast
MDA-MB-435 = test system: MDA-MB-435
OVCAR-5 ovarian = test system: OVCAR-5 ovarian
RPMI-8226 leukemia = test system: RPMI-8226 leukemia
SK-MEL-28 melanoma = test system: SK-MEL-28 melanoma
SK-MEL-5 melanoma = test system: SK-MEL-5 melanoma
SNB-75 CNS = test system: SNB-75 CNS
SW-620 colon = test system: SW-620 colon
TK-10 renal = test system: TK-10 renal
U251 CNS = test system: U251 CNS
UO-31 renal = test system: UO-31 renal
HL-60(TB) leukemia = test system: HL-60(TB) leukemia

Row | SMILES | TGI (786-0 renal) [µM] | TGI (A498 renal) [µM] | TGI (A549 NSCLC) [µM] | TGI (DU-145 prostate) [µM] | TGI (HCC-2998 colon) [µM] | TGI (HCT-116 colon) [µM] | TGI (HCT-15 colon) [µM] | TGI (MCF7 breast) [µM] | TGI (MDA-MB-435) [µM] | TGI (OVCAR-5 ovarian) [µM] | TGI (RPMI-8226 leukemia) [µM] | TGI (SK-MEL-28 melanoma) [µM] | TGI (SK-MEL-5 melanoma) [µM] | TGI (SNB-75 CNS) [µM] | TGI (SW-620 colon) [µM] | TGI (TK-10 renal) [µM] | TGI (U251 CNS) [µM] | TGI (UO-31 renal) [µM] | TGI (HL-60(TB) leukemia) [µM]
1 | CC(=O)Nc1ccc(N=C2C(c3ccccc3)=C(SC3=C(c4ccccc4)C(=Nc4ccc(NC(C)=O)cc4)c4ccccc43)c3ccccc32)cc1 | > 100 | 87.1 | > 100 | > 100 | > 100 | > 100 | > 100 | > 100 | > 100 | > 100 | 81.1 | > 100 | 31.3 | > 100 | > 100 | > 100 | > 100 | > 100 | 
2 | C#CCn1ncc2c(SC)ncnc21 | > 100 | > 100 | > 100 | > 100 | > 100 | > 100 | > 100 | > 100 | > 100 | > 100 | > 100 | > 100 | > 100 | 97.8 | > 100 | > 100 | > 100 | > 100 | 
3 | C/C(=C\c1ccccc1)C(=O)NCc1ccc(C(=O)NCCC(C)C)cc1 | > 100 | > 100 | > 100 | > 100 | > 100 | > 100 | > 100 | > 100 | > 100 | > 100 | > 100 | > 100 | > 100 | 89.4 | > 100 | > 100 | > 100 | > 100 | 
4 | CC(=O)N1CN2C(=O)CCC2c2ccccc21 (stereo unspecified) | > 100 | > 100 | > 100 | > 100 | > 100 | > 100 | > 100 | > 100 | > 100 | > 100 | > 100 | > 100 | > 100 | > 100 | > 100 | > 100 | > 100 | > 100 | 
5 | C1=Nc2ccc(cc2)N=Cc2ccc(cc2)OCc2cccc(n2)COc2ccc1cc2 | > 100 | > 100 | > 100 | > 100 |  | > 100 | > 100 | > 100 | > 100 | > 100 | > 100 | > 100 | > 100 | > 100 | > 100 |  | > 100 | > 100 | > 100
6 | O=C1Cc2c([nH]c3c(Cl)cccc23)-c2ccccc2N1 | > 100 | > 100 | > 100 | > 100 |  | > 100 | > 100 | > 100 | > 100 | > 100 | > 100 | > 100 | > 100 | > 100 | > 100 | > 100 | > 100 | > 100 | > 100
7 | COc1cc(-c2cc(=O)c3c(OC)c(OC)c(OC)cc3o2)c(OC)c(OC)c1OC | > 75 |  | > 75 | > 75 | > 75 | > 75 | > 75 | > 75 | > 75 | > 75 | > 75 | > 75 | > 75 | > 75 | > 75 | > 75 | > 75 | > 75 | 44
8 | COP(=O)(Cc1ccc(/C=C/C#N)o1)OC | > 100 | > 100 | > 100 | > 100 |  | > 100 | > 100 | > 100 | > 100 |  | > 100 | > 100 |  | > 100 |  | > 100 | > 100 |  | > 100
9 | Nc1cc2c(nnn2C2OC(COCc3ccccc3)C(OCc3ccccc3)C2OCc2ccccc2)c(=O)[nH]1 (stereo unspecified) | > 100 | > 100 | > 100 | > 100 |  | 46.9 | > 100 | 83.9 | 40.4 | > 100 |  | > 100 | 19.9 | > 100 | > 100 | 52.1 | > 100 | > 100 | 28.1
10 | CC(C)C[C@H](NC(=O)[C@H](Cc1ccccc1)NC(=O)CCc1ccccc1)B(O)O | < 0.01 | < 0.01 | 0.0919 | < 0.01 | < 0.01 | < 0.01 | < 0.01 | 0.225 | < 0.01 | < 0.01 | > 100 | < 0.01 | < 0.01 | < 0.01 | < 0.0104 | < 0.01 | < 0.0112 | < 0.01 | 
11 | COC(=O)c1cc2c3c(cc(N(C)C)c2[nH]1)N(C(=O)c1cc2cc(OC)c(OC)c(OC)c2[nH]1)CC3CCl (stereo unspecified) | 0.00487 | 0.0292 |  | < 0.0025 | 0.0144 | < 0.0025 | 19.2 | 2.42 | < 0.0025 | 0.25 | 0.0324 | 0.0143 | 0.00591 | 0.00422 |  |  |  |  | 
12 | COc1cc2c(c(O)c1OC)C(O)C1CCC(=O)N1C2c1cccc2ccccc12 (stereo unspecified) | > 100 | > 100 | > 100 | > 100 |  | > 100 | > 100 | > 100 | > 100 | > 100 | > 100 | > 100 | > 100 | > 100 | > 100 |  | > 100 | > 100 | > 100
13 | O=C1N(c2ccccc2)C2(c3ccccc3)CC3CCCC13S2 (stereo unspecified) | > 100 | > 100 | > 100 | > 100 |  | > 100 | > 100 | > 100 | > 100 | > 100 | 98.8 | > 100 | > 100 |  | > 100 | 1.84 | > 100 | > 100 | 61.3
14 | OC1(c2ccc(Cl)cc2)c2c(ccc3c2OCO3)C2=NCCN21 (stereo unspecified) | > 100 | 48.2 | > 100 | > 100 |  | > 100 | > 100 | > 100 | > 100 | > 100 | 42.5 | 34.6 | 32.1 | 59 | > 100 | 45.7 | > 100 | > 100 | > 100
15 | O=C(c1ccco1)N(Cc1ccco1)C(=S)Nc1ccccc1 | 22.7 |  | > 76.8 | > 100 | 98.1 | 30.7 | 36.2 | 49 | 30.2 | > 100 | 11.7 | 33.8 | 35.9 | > 74.9 | 32.2 | > 77.4 | 91 | 32.8 | 4.61
16 | O=S(=O)(N/N=C1\CC2CCC1C2)c1ccccc1 (stereo unspecified) | > 100 |  | > 100 | > 100 |  | > 100 | > 100 | > 100 | > 100 | > 100 | > 100 | > 100 | > 100 | > 100 | > 100 | > 100 | > 100 | > 100 | > 100
17 | Cc1cc(NS(=O)(=O)c2ccc(NC(=O)c3ccc4[nH]c5ccccc5c(=O)c4c3)cc2)no1 | > 100 |  | > 100 | > 100 | > 100 | > 100 | > 100 | > 100 | > 100 | > 100 | > 100 | > 100 | > 100 | > 100 | > 100 | > 100 | > 100 | > 100 | > 100
18 | O=c1[nH]cnc2c1sc1nc3ccccc3n12 | > 100 | > 100 | > 100 | > 100 | > 100 | > 100 | > 100 | > 100 | > 100 | > 100 | > 100 | > 100 | > 100 | > 100 | > 100 | > 100 | > 100 | > 100 | 
19 | O=Cc1c2ccccc2n2ccc3c4ccccc4[nH]c3c12 | > 10 |  | > 10 | > 10 | > 10 | > 10 | > 10 | > 10 | > 10 | > 10 | > 10 |  | > 10 | > 10 | > 10 | > 10 | > 10 | > 10 | > 10
20 | O=C1CS(=O)(=O)C(c2cccc(Oc3ccccc3)c2)N1c1cccc(Cl)c1 (stereo unspecified) | 40.3 |  | > 100 | > 100 | 15.7 | 29.6 | > 100 | 32.4 | 65.8 | > 100 |  | > 100 | 31.1 | > 100 | > 100 | 63.1 | 47.2 | > 100 | > 100
21 | CN(C)c1nc2oc(-c3ccccc3)c(-c3ccccc3)c2c2nncn12 | > 100 | > 100 | > 100 | > 100 | > 100 | > 100 | > 100 | > 100 | > 100 | > 100 | > 100 | > 100 |  | > 100 | > 100 | > 100 | > 100 | > 100 | 
